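Cultured in 96-well plates, cells were exposed to test compound for 48 hours across five concentrations. At the TGI there is no net growth.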
Columns and labels:
Assay in all cases: NCI tumour cell line growth inhibition, 48 h
[1] = tested on: KM12 colon
[2] = tested on: 786-0 renal
[3] = tested on: SF-295 CNS
[4] = tested on: UO-31 renal
[5] = tested on: SNB-19 CNS
[6] = tested on: SF-539 CNS
[7] = tested on: HT29 colon
[8] = tested on: NCI/ADR-RES ovarian
[9] = tested on: LOX IMVI melanoma
[10] = tested on: MDA-MB-231 breast

Measured: TGI

COc1ccc2c(c1)CCN1CCc3cc(OC)c(OC)cc3CC21 (stereo not given)
> 100 µM: all assays above

CSCCC(NC(=O)Cc1ccc(C(=O)c2ccccc2)cc1)C(=O)O (stereo not given)
> 100 µM: all assays above

C[C@H]1C=C2[C@@H]3CC(C)(C(=O)O)CC[C@]3(C)CC[C@]2(C)[C@]2(C)CC[C@H]3C(C)(C)[C@@H](OC(=O)c4cccc5c(=O)c6ccccc6[nH]c45)CC[C@]3(C)[C@@H]12 (stereo not given in full)
> 100 µM: all assays above

CC(=O)OCC1OC(n2c(=O)[nH]c(=O)c3sccc32)C(Br)C1OC(C)=O (stereo not given)
> 100 µM: all assays above

Source: PubChem BioAssay (NCI)
